Test results taken from patent US20250277012A1 (Protagonist Therapeutics, Inc., priority 2021, published 2025).
Starred links: 1 amine or outer side, 2 acyl side, 3 side chain; linkers in the order of their positions; H or OH if unused. Positions of bridges follow the written chain, without caps; N, C: chain ends. Non-standard residues stand in square brackets, D forms with d. Residues, ends and D or L forms follow the SMILES beside them. Groups on a side chain read outwards from the residue. *: point of attachment. X1 = C[N+](C)(CCNC(=O)CCCCCCCCCCCCCCCCC(=O)O)CC(=O)*; Trp(6-OMe) = COc1ccc2c(C[C@H](N)C(=O)O)c[nH]c2c1; Phe(4-CF3) = N[C@@H](Cc1ccc(C(F)(F)F)cc1)C(=O)O; Bip = N[C@@H](Cc1ccc(-c2ccccc2)cc1)C(=O)O; C18 diacid = O=C(O)CCCCCCCCCCCCCCCCC(=O)*; Dip = N[C@H](C(=O)O)C(c1ccccc1)c1ccccc1; γGlu = O=C(O)[C@H](CCC(=O)[*:2])N[*:1]; Palmitoyl = CCCCCCCCCCCCCCCC(=O)*; NMeF = CN[C@@H](Cc1ccccc1)C(=O)O; NMeT = CN[C@H](C(=O)O)[C@@H](C)O; β3hF = N[C@H](CC(=O)O)Cc1ccccc1; dPen = CC(C)(S)[C@@H](N)C(=O)O; NMeK = CN[C@@H](CCCCN)C(=O)O; Pen = CC(C)(S)[C@H](N)C(=O)O; dNMeK = CN[C@H](CCCCN)C(=O)O; Isovaleryl = CC(C)CC(=O)*; hCys = N[C@@H](CCS)C(=O)O; Dap = NC[C@H](N)C(=O)O; AEEA = NCCOCCOCC(=O)O; Ahx = NCCCCCC(=O)O

target: T1, ferroportin (Homo sapiens, UniProt Q9NP59); experiment: FPN activity assay: ferroportin-GFP internalization/degradation in HEK293 cells; format: cell-based; set-up: expressed in transfected cells; settings: Table 6D; ferroportin-GFP internalization/degradation, at least 18 hours incubation; read-out: FPN IC50
T1 sequence (Q9NP59 1-571): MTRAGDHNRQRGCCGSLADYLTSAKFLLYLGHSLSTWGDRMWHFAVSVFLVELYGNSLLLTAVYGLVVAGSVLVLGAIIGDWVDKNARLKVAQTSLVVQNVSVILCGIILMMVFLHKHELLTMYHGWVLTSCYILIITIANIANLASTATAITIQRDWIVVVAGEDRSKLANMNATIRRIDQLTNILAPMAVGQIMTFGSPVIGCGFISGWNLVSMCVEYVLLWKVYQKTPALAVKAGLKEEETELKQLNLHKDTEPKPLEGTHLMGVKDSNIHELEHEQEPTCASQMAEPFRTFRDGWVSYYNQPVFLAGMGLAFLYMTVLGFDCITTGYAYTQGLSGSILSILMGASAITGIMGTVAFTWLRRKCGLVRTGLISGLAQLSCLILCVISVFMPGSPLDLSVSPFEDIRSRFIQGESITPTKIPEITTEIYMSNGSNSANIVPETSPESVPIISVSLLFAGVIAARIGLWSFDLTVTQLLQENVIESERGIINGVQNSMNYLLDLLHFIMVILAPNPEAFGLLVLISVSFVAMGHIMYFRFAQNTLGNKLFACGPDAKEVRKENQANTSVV
Procedure: Following internalization, the ferroporin protein is degraded.
A retro inverse peptide is a peptide with a reversed sequence in all D amino acids. An example is that Hy-Glu-Thr-His-NH2 becomes Hy-DHis-DThr-DGlu-NH2. The EC50 of these reference compounds for ferroportin internalization/degradation was determined according to the FPN activity assay described above. These peptides served as control standards.

DC50 [nM] | SMILES
100 to 500 | CCCCCCCCCCCCCCCC(=O)NCC[N+](C)(C)CC(=O)NCCCC[C@H](NC(=O)[C@@H]1CSSC[C@H](NC(=O)[C@H](CCC(=O)O)NC(=O)CC(C)C)C(=O)N[C@@H](Cc2c[nH]cn2)C(=O)N[C@@H](C(c2ccccc2)c2ccccc2)C(=O)N1)C(=O)NCCCCC [compound 124]

same assay, conditions: Table 6E; ferroportin-GFP internalization/degradation, at least 18 hours incubation; read-out: FPN IC50

DC50 [nM] | SMILES
> 500 | COC(=O)CC[C@H](NC(=O)CC(C)C)C(=O)N(C)[C@H](C(=O)N[C@@H](Cc1c[nH]cn1)C(=O)N[C@H](C(=O)N1CCC[C@H]1C(=O)N[C@H]1CSSC[C@@H](C(=O)N(C)[C@@H](CCCCNC(=O)C[N+](C)(C)CCNC(=O)CCCCCCCCCCCCCCCCC(=O)O)C(=O)N(C)[C@@H](Cc2ccccc2)C(N)=O)NC1=O)C(c1ccccc1)c1ccccc1)[C@@H](C)O [compound 185] (Isovaleryl-E(OMe)[NMeT]H[Dip]PCC[NMeK](X1)[NMeF]-NH2; disulfide 6-7)

same assay, conditions: ferroportin-GFP HEK293 cells, at least 18 hours; read-out: FPN IC50

DC50 [nM] | SMILES
100 to 500 | CCCCCCCCCCCCCCCC(=O)NCCCCCC(=O)NCCCC[C@H](NC(=O)C[C@H](Cc1ccccc1)NC(=O)[C@@H]1CSSC[C@H](NC(=O)[C@@H]2CCCN2C(=O)[C@@H](NC(=O)[C@H](Cc2c[nH]cn2)NC(=O)[C@@H](NC(=O)[C@H](CCC(=O)O)NC(=O)CC(C)C)[C@@H](C)O)C(c2ccccc2)c2ccccc2)C(=O)N[C@@H]([C@@H](C)CC)C(=O)N1)C(=O)N[C@H](CCCCN)C(N)=O [Compd 8] (Isovaleryl-ETH[Dip]PCIC[β3hF]K([Ahx-Palmitoyl])[dK]-NH2; disulfide 6-8)
100 to 500 | CCCCCCCCCCCCCCCC(=O)NCCCCCC(=O)NCCCC[C@H](NC(=O)C[C@H](Cc1ccccc1)NC(=O)[C@@H]1CSSC(C)(C)[C@@H](NC(=O)CC(C)C)C(=O)N[C@@H]([C@@H](C)O)C(=O)N[C@@H](Cc2c[nH]cn2)C(=O)N[C@@H](C(c2ccccc2)c2ccccc2)C(=O)N2CCC[C@H]2C(=O)N[C@@H](C)C(=O)N[C@@H]([C@@H](C)CC)C(=O)N1)C(=O)N[C@H](CCCCN)C(N)=O [compound 103] (Isovaleryl-[dPen]TH[Dip]PAIC[β3hF]K([Ahx-Palmitoyl])[dK]-NH2; disulfide 1-8)
100 to 500 | CC(C)CC(=O)N[C@@H](CCC(=O)O)C(=O)N[C@H](C(=O)N[C@@H](Cc1c[nH]cn1)C(=O)N[C@H](C(=O)N1CCC[C@H]1C(=O)N[C@H]1CSSC[C@@H](C(=O)N[C@H](CCCCN)C(=O)N[C@H](CC(=O)N[C@@H](CCCCNC(=O)COCCOCCNC(=O)COCCOCCNC(=O)CC[C@H](NC(=O)CCCCCCCCCCCCCCCCC(=O)O)C(=O)O)C(=O)N[C@H](CCCCN)C(N)=O)Cc2ccccc2)NC1=O)C(c1ccccc1)c1ccccc1)[C@@H](C)O [Compd 28] (Isovaleryl-ETH[Dip]PCC[dK][β3hF]K([AEEA-AEEA-γGlu-C18 diacid])[dK]-NH2; disulfide 6-7)
100 to 500 | CCCCCCCCCCCCCCCC(=O)NCCCCCC(=O)NCCCC[C@H](NC(=O)[C@@H](NC(=O)[C@@H]1CCSSC[C@H](N)C(=O)N[C@@H](C(C)C)C(=O)N[C@@H](CCC(=O)O)C(=O)N[C@@H]([C@@H](C)O)C(=O)N[C@@H](Cc2c[nH]cn2)C(=O)N[C@@H](C(c2ccccc2)c2ccccc2)C(=O)N2CCC[C@H]2C(=O)N1)[C@@H](C)CC)C(=O)N[C@H](CC(N)=O)Cc1ccccc1 [Compd 17] (H-CVETH[Dip]P[hCys]IK([Ahx-Palmitoyl])[β3hF]-NH2; disulfide 1-8)
10 to 100 | CCCCCCCCCCCCCCCC(=O)NCCCCCC(=O)NCCCC[C@H](NC(=O)C[C@H](Cc1ccccc1)NC(=O)[C@@H]1CSSC[C@@H](NC(=O)CC(C)C)C(=O)N[C@@H]([C@@H](C)O)C(=O)N[C@@H](Cc2c[nH]cn2)C(=O)N[C@@H](C(c2ccccc2)c2ccccc2)C(=O)N2CCC[C@H]2C(=O)N[C@@H](C)C(=O)N[C@@H]([C@@H](C)CC)C(=O)N1)C(=O)N[C@H](CCCCN)C(N)=O [compound 107] (Isovaleryl-[dC]TH[Dip]PAIC[β3hF]K([Ahx-Palmitoyl])[dK]-NH2; disulfide 1-8)
10 to 100 | CCCCCCCCCCCCCCCC(=O)NCCCCCC(=O)NCCCC[C@H](NC(=O)C[C@H](Cc1ccccc1)NC(=O)[C@@H]1CCSSCC[C@H](NC(=O)CC(C)C)C(=O)N[C@@H]([C@@H](C)O)C(=O)N[C@@H](Cc2cnc[nH]2)C(=O)N[C@@H](C(c2ccccc2)c2ccccc2)C(=O)N2CCC[C@H]2C(=O)N[C@@H](C)C(=O)N[C@@H]([C@@H](C)CC)C(=O)N1)C(=O)N[C@H](CCCCN)C(N)=O [compound 111] (Isovaleryl-[hCys]TH[Dip]PAI[hCys][β3hF]K([Ahx-Palmitoyl])[dK]-NH2; disulfide 1-8)
100 to 500 | CCCCCCCCCCCCCCCC(=O)NCCCCCC(=O)NCCCC[C@H](NC(=O)[C@@H](NC(=O)[C@@H]1CSSC[C@H](NC(=O)CC(C)C)C(=O)N[C@@H](CCC(=O)O)C(=O)N[C@@H]([C@@H](C)O)C(=O)N[C@@H](Cc2c[nH]cn2)C(=O)N[C@@H](C(c2ccccc2)c2ccccc2)C(=O)N2CCC[C@H]2C(=O)N1)[C@@H](C)CC)C(=O)N[C@H](CC(N)=O)Cc1ccccc1 [Compd 10] (Isovaleryl-CETH[Dip]PCIK([Ahx-Palmitoyl])[β3hF]-NH2; disulfide 1-7)
10 to 100 | CCCCCCCCCCCCCCCC(=O)N[C@@H](CCC(=O)NCCCC[C@H](NC(=O)[C@@H](NC(=O)[C@@H]1CSSC[C@H](NC(=O)[C@@H]2CCCN2C(=O)[C@H](Cc2ccccc2)NC(=O)[C@H](Cc2c[nH]cn2)NC(=O)[C@@H](NC(=O)[C@H](CC(=O)O)NC(=O)CC(C)C)[C@@H](C)O)C(=O)N1)[C@@H](C)CC)C(=O)N[C@@H](Cc1ccccc1)C(=O)N[C@@H](CCC(=O)O)C(=O)N1CCC[C@H]1C(=O)N[C@@H](CCCNC(=N)N)C(=O)O)C(=O)O [Compd 101] (Isovaleryl-DTHFPCCIK([γGlu-Palmitoyl])FEPR-OH; disulfide 6-7)
10 to 100 | CCCCCCCCCCCCCCCC(=O)NCCCCCC(=O)NCCCC[C@H](NC(=O)C[C@H](Cc1ccccc1)NC(=O)[C@H]1NC(=O)[C@H]([C@@H](C)CC)NC(=O)[C@H](C)NC(=O)[C@@H]2CCCN2C(=O)[C@H](C(c2ccccc2)c2ccccc2)NC(=O)[C@H](Cc2c[nH]cn2)NC(=O)[C@H]([C@@H](C)O)NC(=O)[C@@H](NC(=O)CC(C)C)CCSSC1(C)C)C(=O)N[C@H](CCCCN)C(N)=O [compound 109] (Isovaleryl-[hCys]TH[Dip]PAI[Pen][β3hF]K([Ahx-Palmitoyl])[dK]-NH2; disulfide 1-8)

same assay, conditions: ferroportin-GFP internalization/degradation, HEK293 cells; Table 6E; read-out: FPN IC50

DC50 [nM] | SMILES
> 500 | COc1ccc2c(C[C@H](NC(=O)[C@@H](NC(=O)[C@H](CCC(=O)O)NC(=O)CC(C)C)[C@@H](C)O)C(=O)N[C@H](C(=O)N3CCC[C@H]3C(=O)N[C@H]3CSSC[C@@H](C(=O)N(C)[C@@H](CCCCNC(=O)COCCOCCNC(=O)COCCOCCNC(=O)[C@H](CN)NC(=O)CCCCCCCCCCCCCCCCC(=O)O)C(=O)N[C@H](CC(=O)N[C@H](CCCCN)C(N)=O)Cc4ccccc4)NC3=O)C(c3ccccc3)c3ccccc3)c[nH]c2c1 [compound 287] (Isovaleryl-ET[Trp(6-OMe)][Dip]PCC[NMeK]([AEEA-AEEA-Dap-C18 diacid])[β3hF][dK]-NH2; disulfide 6-7)
10 to 100 | CC(C)CC(=O)N[C@@H](CCC(=O)O)C(=O)N[C@H](C(=O)N[C@@H](Cc1c[nH]cn1)C(=O)N[C@H](C(=O)N1CCC[C@H]1C(=O)N[C@H]1CSSC[C@@H](C(=O)N(C)[C@@H](CCCCNC(=O)COCCOCCNC(=O)COCCOCCNC(=O)[C@H](CN)NC(=O)CCCCCCCCCCCCCCCCC(=O)O)C(=O)N[C@H](CC(=O)N(C)[C@H](CCCCN)C(N)=O)Cc2ccccc2)NC1=O)C(c1ccccc1)c1ccccc1)[C@@H](C)O [compound 276] (Isovaleryl-ETH[Dip]PCC[NMeK]([AEEA-AEEA-Dap-C18 diacid])[β3hF][dNMeK]-NH2; disulfide 6-7)
100 to 500 | CC(C)CC(=O)N[C@@H](CCC(=O)O)C(=O)N[C@H](C(=O)N[C@@H](Cc1ccc(C(F)(F)F)cc1)C(=O)N[C@H](C(=O)N1CCC[C@H]1C(=O)N[C@H]1CSSC[C@@H](C(=O)N(C)[C@@H](CCCCNC(=O)COCCOCCNC(=O)COCCOCCNC(=O)[C@H](CN)NC(=O)CCCCCCCCCCCCCCCCC(=O)O)C(=O)N[C@H](CC(=O)N[C@H](CCCCN)C(N)=O)Cc2ccccc2)NC1=O)C(c1ccccc1)c1ccccc1)[C@@H](C)O [compound 286] (Isovaleryl-ET[Phe(4-CF3)][Dip]PCC[NMeK]([AEEA-AEEA-Dap-C18 diacid])[β3hF][dK]-NH2; disulfide 6-7)
> 500 | CC(C)CC(=O)N[C@@H](CCC(=O)O)C(=O)N[C@H](C(=O)N[C@@H](Cc1ccc(-c2ccccc2)cc1)C(=O)N[C@H](C(=O)N1CCC[C@H]1C(=O)N[C@H]1CSSC[C@@H](C(=O)N(C)[C@@H](CCCCNC(=O)COCCOCCNC(=O)COCCOCCNC(=O)[C@H](CN)NC(=O)CCCCCCCCCCCCCCCCC(=O)O)C(=O)N[C@H](CC(=O)N[C@H](CCCCN)C(N)=O)Cc2ccccc2)NC1=O)C(c1ccccc1)c1ccccc1)[C@@H](C)O [compound 297] (Isovaleryl-ET[Bip][Dip]PCC[NMeK]([AEEA-AEEA-Dap-C18 diacid])[β3hF][dK]-NH2; disulfide 6-7)
